Like-named read-outs stand apart in the source and are kept apart here. A value given as a limit tells only on which side of the number the result lay.

This assay addresses T1, human RXFP1 (Homo sapiens, UniProt Q9HBX9).
T1 sequence (Q9HBX9 1-757): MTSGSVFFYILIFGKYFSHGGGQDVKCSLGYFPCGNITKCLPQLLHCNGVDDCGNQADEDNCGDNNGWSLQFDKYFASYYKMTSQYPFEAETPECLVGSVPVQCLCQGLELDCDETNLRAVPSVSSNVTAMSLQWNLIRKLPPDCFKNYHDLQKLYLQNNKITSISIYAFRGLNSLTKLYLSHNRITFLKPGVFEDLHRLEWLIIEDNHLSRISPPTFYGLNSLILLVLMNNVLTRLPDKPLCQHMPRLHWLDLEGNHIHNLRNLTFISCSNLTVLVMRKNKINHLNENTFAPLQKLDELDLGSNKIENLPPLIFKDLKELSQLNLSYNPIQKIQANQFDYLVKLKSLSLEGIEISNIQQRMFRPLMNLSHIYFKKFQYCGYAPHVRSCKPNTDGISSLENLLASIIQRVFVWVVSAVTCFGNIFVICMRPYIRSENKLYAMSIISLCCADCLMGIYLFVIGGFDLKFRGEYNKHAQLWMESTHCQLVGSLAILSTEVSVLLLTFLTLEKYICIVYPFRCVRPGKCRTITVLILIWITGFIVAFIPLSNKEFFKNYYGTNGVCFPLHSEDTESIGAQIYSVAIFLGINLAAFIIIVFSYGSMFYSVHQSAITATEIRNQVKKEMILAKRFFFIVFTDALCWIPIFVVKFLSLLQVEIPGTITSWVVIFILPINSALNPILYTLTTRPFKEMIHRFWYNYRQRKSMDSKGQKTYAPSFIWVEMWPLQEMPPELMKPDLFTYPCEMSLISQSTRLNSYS
Nature of the assay: RXFP1 Hu cAMP (Test A). It is filed as cell-based. On the set-up: expressed in transfected cells; host or cells: Jump-In T-REx CHO-K1 cells (ThermoFisher), induced with 10 ng/ml doxycycline for 24 h. In short, it runs like this:
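CHO-K1 (Jump-In T-REx), RXFP1 induced w/ 10 ng/ml doxycycline 24 h, cryopreserved. 0.5 mM IBMX final. cAMP by HTRF, 2 h RT, std curve.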

Where [1] appears, read: RXFP1 Hu cAMP, read-out: Test A EC50.

The EC50 is the concentration at which the effect is half-maximal. As for `CC1(CNC(=O)[C@H]2[C@@H]3CC[C@@H](C3)[C@H]2NC(=O)c2ccc(F)c(O[C@H]3CC[C@@](C)(C(=O)O)CC3)c2)CCC1` [Example 400], the “Test A Sinf” value (RXFP1 Hu cAMP) came out at 91%. Besides, a half-maximal response (Test A EC50, RXFP1 Hu cAMP) (EC50) required 180 nM.

`COc1cc(F)c(-c2cc(C(=O)O)ccn2)cc1C(=O)N[C@H]1[C@@H](C(=O)Nc2cccc(S(=O)(=O)C(F)(F)F)c2)[C@@H]2C=C[C@H]1C2` (racemic) [Example 277]: for the setting “RXFP1 Hu cAMP”, the “Test A Sinf” value was found to be 122%. Besides, the EC50 under setting [1] is 7400 nM. `COc1ccc(CCC(=O)O)cc1C(=O)N[C@H]1[C@@H](C(=O)Nc2cccc(S(=O)(=O)C(F)(F)F)c2)[C@@H]2C=C[C@H]1C2` (racemic) [Example 218, rac-3-(4-Methoxy-3-(((1R,2R,3S,4S)-3-((3-((trifluoromethyl)sulfonyl)phenyl)carbamoyl)bicyclo[2.2.1]hept-5-en-2-yl)carbamoyl)phenyl)propanoic acid]: the EC50 under setting [1] is more than 40000 nM. On to “(1R,4s)-4-(2-Fluoro-5-(((1S*,2S*,5S*)-2-hydroxy-5-((3-((trifluoromethyl)sulfonyl)phenyl)carbamoyl)cyclopentyl)carbamoyl)-4-methoxyphenoxy)-1-methylcyclohexane-1-carboxylic acid [Example 529]”, for which, where the note is “RXFP1 Hu cAMP”, the “Test A Sinf” value stood at 96%. With `COc1cc(F)c(-c2cccc(C(=O)O)n2)cc1C(=O)N[C@H]1[C@@H](C(=O)Nc2cccc(S(=O)(=O)C(F)(F)F)c2)[C@@H]2C=C[C@H]1C2` (racemic) [Example 279], the EC50 under setting [1] was more than 40000 nM.

As for `COc1cc(C#N)c(O[C@H]2CC[C@@](C)(C(=O)O)CC2)cc1C(=O)N[C@@H]1[C@H]2CC[C@H](C2)[C@@H]1C(=O)NC[C@@H](F)c1ccccc1` [Example 131], the “Test A Sinf” value (RXFP1 Hu cAMP) is 99%. The EC50 under setting [1] stood at 84 nM. Take `Cn1ncc2cc(C(=O)N[C@@H]3[C@H]4CC[C@H](C4)[C@@H]3C(=O)NCC3(C)CCC3)cc(O[C@H]3CC[C@@](C)(C(=O)O)CC3)c21` [Example 378]: the EC50 under setting [1] was more than 2500 nM. The same measure, in the same setting: next, `COc1cc(F)c(OC2CCC(C)(C(=O)O)CC2)cc1C(=O)NC1COCC1C(=O)Nc1ccc(F)c(S(F)(F)(F)(F)F)c1` [Example 564, (1R,4s)-4-(2-Fluoro-5-(((3S*,4R*)-4-((4-fluoro-3-(pentafluoro-λ6-sulfaneyl)phenyl)carbamoyl)tetrahydrofuran-3-yl)carbamoyl)-4-methoxyphenoxy)-1-methylcyclohexane-1-carboxylic acid]: more than 40000 nM. As to `COC[C@]1(C(=O)O)CC[C@@H](Oc2cc(C(=O)N[C@@H]3[C@H]4CC[C@H](C4)[C@@H]3C(=O)NCC(C)(C)C)c(OC)cc2F)CC1` [Example 481], the “Test A Sinf” value (RXFP1 Hu cAMP) turned out to be 96%. As to `COc1cc(F)c(O[C@H]2CC[C@@](CO)(C(=O)O)CC2)cc1C(=O)N[C@@H]1[C@@H]2CC[C@@H](C2)[C@@H]1C(=O)Nc1cccc(S(=O)(=O)C(F)(F)F)c1` (racemic) [Example 366], the “Test A Sinf” value (RXFP1 Hu cAMP) was 103%. Besides, the EC50 under setting [1] was 2.2 nM. Take `COc1cc(C#N)c(O[C@H]2CC[C@@](C)(C(=O)O)CC2)cc1C(=O)N[C@H]1[C@@H](C(=O)NCC2(C)CCC2)[C@H]2CC[C@@H]1N2C(=O)OC(C)(C)C` (racemic) [Example 334]: the “Test A Sinf” value (RXFP1 Hu cAMP) is 96%. This compound registered an EC50 (Test A EC50, RXFP1 Hu cAMP) of 4.3 nM.

As for `COc1cc(F)c(OC2CCC(O)(C(=O)O)CC2)cc1C(=O)N[C@@H]1[C@@H]2CC[C@@H](C2)[C@@H]1C(=O)Nc1cccc(S(=O)(=O)C(F)(F)F)c1` (relative stereo) [Example 583, (1R,4r)-4-(2-Fluoro-4-methoxy-5-(((1R*,2R*,3S*,4S*)-3-((3-((trifluoromethyl)sulfonyl)phenyl)carbamoyl)bicyclo[2.2.1]heptan-2-yl)carbamoyl)phenoxy)-1-hydroxycyclohexane-1-carboxylic acid], the “Test A Sinf” value (RXFP1 Hu cAMP) was determined as 84%. Moreover, under setting [1], the EC50 is 350 nM. Taken in the same sequence, the figures for `COc1cc(F)c(OCc2ccc(C(C)(C)C(=O)O)cc2)cc1C(=O)N[C@H]1[C@@H](C(=O)Nc2cccc(S(=O)(=O)C(F)(F)F)c2)[C@@H]2C=C[C@H]1C2` (racemic) [Example 452] were 104% and 980 nM. The matching figures for `COc1cc(F)c(-c2nc(C(=O)O)co2)cc1C(=O)N[C@H]1[C@@H](C(=O)Nc2cccc(S(=O)(=O)C(F)(F)F)c2)[C@@H]2C=C[C@H]1C2` (racemic) [Example 275, rac-2-(2-Fluoro-4-methoxy-5-(((1R,2R,3S,4S)-3-((3-((trifluoromethyl)sulfonyl)phenyl)carbamoyl)bicyclo[2.2.1]hept-5-en-2-yl)carbamoyl)phenyl)oxazole-4-carboxylic acid]: 83% and 11000 nM. As for `COc1cc(F)c(O[C@H]2CC[C@@](C)(C(=O)O)CC2)cc1C(=O)N[C@@H]1[C@H]2CC[C@H](C2)[C@@H]1C(=O)NCC1(C(F)(F)F)CC1` [Example 614], under “RXFP1 Hu cAMP”, the “Test A Sinf” value was 96%.

For the compound `COc1ccc(Cc2ccccc2C(=O)O)cc1C(=O)N[C@H]1[C@@H](C(=O)Nc2cccc(S(=O)(=O)C(F)(F)F)c2)[C@@H]2C=C[C@H]1C2` (racemic) [Example 223, rac-2-(4-Methoxy-3-(((1R,2R,3S,4S)-3-((3-((trifluoromethyl)sulfonyl)phenyl)carbamoyl)bicyclo[2.2.1]hept-5-en-2-yl)carbamoyl)benzyl)benzoic acid], the EC50 under setting [1] is more than 40000 nM. The same measure, in the same setting: next, `COc1cc(F)c(O[C@H]2CC[C@@](C)(C(=O)O)CC2)cc1C(=O)NC1COCCC1C(=O)Nc1ccc(F)c(S(F)(F)(F)(F)F)c1` (single isomer, unassigned) [Example 574, (1R,4s)-4-(2-Fluoro-5-(((3S*,4S*)-4-((4-fluoro-3-(pentafluoro-λ6-sulfaneyl)phenyl)carbamoyl)tetrahydro-2H-pyran-3-yl)carbamoyl)-4-methoxyphenoxy)-1-methylcyclohexane-1-carboxylic acid]: more than 40000 nM. Consider `COc1cc(F)c(-c2ccc(C(=O)O)cc2)cc1C(=O)N[C@H]1[C@@H](C(=O)N[C@H]2CCCN(S(=O)(=O)C(F)(F)F)C2)[C@@H]2C=C[C@H]1C2` (racemic) [Example 311], for which the “Test A Sinf” value (RXFP1 Hu cAMP) is given as 67%. Besides, the EC50 under setting [1] amounted to 7700 nM. `COc1cc(F)c(Cn2nccc2C(=O)O)cc1C(=O)N[C@@H]1[C@H]2CC[C@H](C2)[C@@H]1C(=O)Nc1cccc(S(=O)(=O)C(F)(F)F)c1` [Example 221, 1-(2-Fluoro-4-methoxy-5-(((1S,2R,3S,4R)-3-((3-((trifluoromethyl)sulfonyl)phenyl)carbamoyl)bicyclo[2.2.1]heptan-2-yl)carbamoyl)benzyl)-1H-pyrazole-5-carboxylic acid]: the EC50 under setting [1] is more than 40000 nM. Regarding `COc1cc(C#N)c(OC2CCC(C)(C(=O)O)CC2)cc1C(=O)NC1C(C(=O)NCC2(C)CCC2)C2CCC1N2CCC(F)(F)F` (single isomer, unassigned) [Example 537, (1R,4s)-4-(2-Cyano-4-methoxy-5-(((1S*,2S*,3R*,4R*)-3-(((1-methylcyclobutyl)methyl)carbamoyl)-7-(3,3,3-trifluoropropyl)-7-azabicyclo[2.2.1]heptan-2-yl)carbamoyl)phenoxy)-1-methylcyclohexane-1-carboxylic acid], the “Test A Sinf” value (RXFP1 Hu cAMP) is given as 77%. For the same compound, the EC50 under setting [1] came out at 6000 nM.

Turning to `COc1cc(F)c(O[C@H]2CC[C@@](OC)(C(=O)O)CC2)cc1C(=O)N[C@@H]1[C@H]2CC[C@H](C2)[C@@H]1C(=O)NCC1(C)CCC1` [Example 506, (1R,4r)-4-(2-Fluoro-4-methoxy-5-(((1S,2R,3S,4R)-3-(((1-methylcyclobutyl)methyl)carbamoyl)bicyclo[2.2.1]heptan-2-yl)carbamoyl)phenoxy)-1-methoxycyclohexane-1-carboxylic acid], under “RXFP1 Hu cAMP”, the “Test A Sinf” value was 98%. Moreover, the EC50 under setting [1] was found to be 320 nM. As to `CCCCCCNC(=O)[C@H]1[C@@H]2CC[C@@H](C2)[C@H]1NC(=O)c1cc(O[C@H]2CC[C@@](C)(C(=O)O)CC2)c(C#N)cc1OC` [Example 117], where the note is “RXFP1 Hu cAMP”, the “Test A Sinf” value was 100%. For the same compound, the EC50 under setting [1] turned out to be 110 nM.

With `COc1cc(C#N)c(O[C@H]2CC[C@@](C)(C(=O)O)CC2)cc1C(=O)N[C@@H]1[C@H]2CC[C@H](C2)[C@@H]1C(=O)N[C@H](C)C1CCCCC1` [Example 120], the “Test A Sinf” value (RXFP1 Hu cAMP) was found to be 95%. On to `COc1cc(F)c(-c2ccc(C(=O)O)cc2F)cc1C(=O)N[C@H]1[C@@H](C(=O)Nc2cccc(S(=O)(=O)C(F)(F)F)c2)[C@@H]2C=C[C@H]1C2` (racemic) [Example 227], for which, under “RXFP1 Hu cAMP”, the “Test A Sinf” value worked out at 102%. Under setting [1], the EC50 is 420 nM.

As to `COc1ccc(Oc2ccc(C(=O)O)cc2)cc1C(=O)N[C@H]1[C@@H](C(=O)Nc2cccc(S(=O)(=O)C(F)(F)F)c2)[C@@H]2C=C[C@H]1C2` (racemic) [Example 427], for the setting “RXFP1 Hu cAMP”, the “Test A Sinf” value amounted to 86%. Further, the EC50 under setting [1] came out at 680 nM.

The record behind these values is patent publication US11667602B2, “Compounds and their use” (AstraZeneca AB, priority 2020, dated 2023).
